Data on two compounds can be found in publication PMC2375285, “Inhibition of all-TRANS-retinoic acid metabolism by R116010 induces antitumour activity” (British Journal of Cancer, 2002).

Data set [1] deals with T47D cells. Briefly: T47D cell proliferation (MTT assay, 7 days). In kind it is cell-based, human. The procedure:
T47D cells were seeded in Falcon® 96-well cell culture plates (Life Technologies, Merelbeke, Belgium) at 2500 cells per well in a total volume of 150 μl. Cells were allowed to adhere to plastic for 24 h. Drugs and/or medium were added to a final volume of 200 μl (day 0). Cells were grown under these conditions for 7 days, with renewal of medium and drugs on days 2 and 5. On day 7, medium was renewed and 25 μl MTT-solution was added, and cells were further incubated for 2 h in a cell incubator. The medium was aspirated and 25 μl Sorensen glycine buffer (0.1 M glycine, 0.1 M NaCl; pH 10.5) was added together with 100 μl DMSO to solubilize the blue MTT-formazan product. […] Data are presented as mean±s.d. of three or four independent experiments. Within an experiment, the result of each experimental condition is the mean of six replicate wells. The IC50-values were calculated by non-linear regression analysis using SigmaPlot 4.01 software.
For orientation: Tetrazolium assays rely on reduction of a dye to a coloured formazan, in cell work by metabolically active cells.

In data set [2] the test system is TA3-Ha mammary tumours. Briefly: TA3-Ha mammary carcinoma model. The conditions noted are these: for toxicity findings: at toxic dose: RA 5, R116010 5, liarozole fumarate 20 mg kg^−1; for therapeutic window: maximum tolerated dose versus lowest active dose, TA3-Ha model; for lowest active dose inhibiting TA3-Ha tumour growth: day 1 until day 21, tumour weight.
Method: (§1) Cells (1.5×10^6) were injected intraperitoneally in syngeneic A/J mice. […] Each group consisted of 10 animals for experiments with R116010 and of six animals for experiments with RA. All treatments were performed by oral gavage. […] The control groups were given the vehicle 20% 4-OH-β-cyclodextrine in sterile saline. Mice were daily examined for adverse drug effects. At the end of the experiments, subcutaneous tumours were excised 24 h after the last treatment and weighed to validate the antitumoural effects of the treatment.
(§2) Data are represented as box plots showing median group value, 25/75th percentile, 10/90th percentile and outliers. Groups were statistically compared to the vehicle-treated groups using the Mann–Whitney U-test. Significance was defined at the level of P<0.05.
Data set [3] can be described thus: in vivo. The note with it: mouse, po.
Method: as §1, §2
For data set [4], the target named is T1, 17,20-lyase (CYP17) (Rattus norvegicus, UniProt P11715).
T1 construct: 17,20-lyase (CYP17) in rat testicular S10 fractions; from tissue; host or cells: rat testis, S10 fraction
T1 sequence (P11715 1-507): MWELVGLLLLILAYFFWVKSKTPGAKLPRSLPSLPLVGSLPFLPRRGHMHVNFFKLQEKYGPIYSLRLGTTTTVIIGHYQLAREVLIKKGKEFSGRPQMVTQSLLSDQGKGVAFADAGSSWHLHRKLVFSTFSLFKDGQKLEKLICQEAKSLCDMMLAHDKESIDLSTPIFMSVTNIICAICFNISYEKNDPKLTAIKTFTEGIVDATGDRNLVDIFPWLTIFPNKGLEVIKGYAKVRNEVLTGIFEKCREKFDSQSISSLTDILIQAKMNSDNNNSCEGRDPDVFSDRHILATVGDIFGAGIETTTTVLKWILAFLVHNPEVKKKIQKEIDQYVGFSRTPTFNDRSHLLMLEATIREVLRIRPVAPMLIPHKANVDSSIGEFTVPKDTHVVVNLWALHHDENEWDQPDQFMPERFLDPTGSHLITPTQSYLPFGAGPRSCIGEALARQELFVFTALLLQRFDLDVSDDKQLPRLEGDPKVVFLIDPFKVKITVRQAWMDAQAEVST
The experiment in a line: 17,20-lyase in rat testicular S10 fraction. It is filed as biochemical.
Method: Metabolism of RA by CYP26A1 was measured in microsomes of T47D human breast cancer cells that were pretreated for 16 h with 1 μM RA to induce RA metabolism. Microsomes were prepared exactly as described by [Han and Choi (1996)], and RA metabolism was measured as described by [Van Wauwe et al (1994)]. The conversion of androstenedione to estrone by aromatase (CYP19) in human placental microsomes, the conversion of 17-hydroxy-20-dihydroprogesterone to testosterone by 17,20-lyase (CYP17) in rat testicular S10 fractions, and the 2α-, 7α-, 6β-, and 16β-hydroxylation of testosterone (CYP2C11, CYP2A1, CYP3A, CYP2B1/2) in rat liver microsomes were carried out as described ([Vanden Bossche et al, 1990]).

The subject of data set [5] is CYP2B1/2. The experiment in a line: Testosterone 16β-hydroxylase in rat liver microsomes. In kind it is biochemical. The conditions noted are these: Rat liver microsomes. In general terms: Liver microsomes are vesicles of endoplasmic reticulum, rich in cytochrome P450 enzymes.
Method: (§3) The conversion of androstenedione to estrone by aromatase (CYP19) in human placental microsomes, the conversion of 17-hydroxy-20-dihydroprogesterone to testosterone by 17,20-lyase (CYP17) in rat testicular S10 fractions, and the 2α-, 7α-, 6β-, and 16β-hydroxylation of testosterone (CYP2C11, CYP2A1, CYP3A, CYP2B1/2) in rat liver microsomes were carried out as described ([Vanden Bossche et al, 1990]).
Data set [6] deals with RA metabolism in intact T47D cells. The experiment in a line: Microcolumn assay for RA metabolism in intact T47D cells. In kind it is cell-based, human. The conditions noted are these: intact T47D cells pretreated 16 h with 1 μM RA; 0.1 μM [3H]RA, 90 min; read-out: IC50 inhibition of RA metabolism. The procedure:
RA metabolism was quantitatively determined using the microcolumn assay as described previously ([Krekels et al, 1997]). […] Cells were then washed twice with culture medium, harvested and resuspended at 4×10^6 cells ml^−1. An aliquot of this cell suspension (450 μl) was incubated for 90 min in the presence of 0.1 μM [11, 12-^3H(N)]RA, after which 2 ml acetonitrile was added. After centrifugation for 10 min at 780 g, the resulting deproteinized supernatant was acidified with 2.5 ml of 40 mM acetic acid and applied to a 3 ml C18 Bond Elut LRC column (Varian, Harbor City, CA, USA; pretreated with 4 ml distilled water) under a vacuum of 127 mmHg using VAC ELUT SPS-24 and the effluent was collected. The column was eluted with 1 ml 40% acetonitrile and the effluent was collected in the same vial. Radioactivity in the collected effluent, containing the polar metabolites, was determined in a Packard Tri-carb 4530 liquid scintillation analyzer. Optiphase ‘Hi Safe II’ (Wallac, Milton Keynes, UK) was used as a scintillator. Data are presented as mean±s.d. of three or four independent experiments. The IC50-values were calculated by non-linear regression analysis using SigmaPlot 4.01 software.

Data set [7] has as its system CYP3A. The note with it: microsomes.
Method: as §3
The target of data set [8] is T2, CYP2C11 (Rattus norvegicus, UniProt P08683).
T2 construct: hydroxylation of testosterone (CYP2C11, CYP2A1, CYP3A, CYP2B1/2) in rat liver microsomes; from tissue; host or cells: rat liver, microsomes
T2 sequence (P08683 1-500): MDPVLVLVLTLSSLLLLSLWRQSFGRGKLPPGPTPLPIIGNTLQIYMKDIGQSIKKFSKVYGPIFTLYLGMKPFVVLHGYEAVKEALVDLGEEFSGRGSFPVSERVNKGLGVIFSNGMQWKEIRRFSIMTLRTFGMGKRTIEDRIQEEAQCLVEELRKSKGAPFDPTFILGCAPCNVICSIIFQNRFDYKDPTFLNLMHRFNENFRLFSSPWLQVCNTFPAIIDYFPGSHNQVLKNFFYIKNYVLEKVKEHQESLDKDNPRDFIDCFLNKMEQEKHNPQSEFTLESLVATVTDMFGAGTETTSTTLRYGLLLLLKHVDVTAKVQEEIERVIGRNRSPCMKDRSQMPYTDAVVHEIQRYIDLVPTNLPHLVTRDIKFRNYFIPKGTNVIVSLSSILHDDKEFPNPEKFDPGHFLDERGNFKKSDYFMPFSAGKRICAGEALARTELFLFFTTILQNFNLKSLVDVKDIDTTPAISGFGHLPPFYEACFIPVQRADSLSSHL
Briefly: Testosterone 2α-hydroxylase in rat liver microsomes. In kind it is biochemical. The conditions noted are these: Rat liver microsomes.
Method: as §3

Data set [9] concerns the target T3, CYP2A1 (Rattus norvegicus, UniProt P11711).
T3 construct: hydroxylation of testosterone (CYP2C11, CYP2A1, CYP3A, CYP2B1/2) in rat liver microsomes; from tissue; host or cells: rat liver, microsomes
T3 sequence (P11711 1-492): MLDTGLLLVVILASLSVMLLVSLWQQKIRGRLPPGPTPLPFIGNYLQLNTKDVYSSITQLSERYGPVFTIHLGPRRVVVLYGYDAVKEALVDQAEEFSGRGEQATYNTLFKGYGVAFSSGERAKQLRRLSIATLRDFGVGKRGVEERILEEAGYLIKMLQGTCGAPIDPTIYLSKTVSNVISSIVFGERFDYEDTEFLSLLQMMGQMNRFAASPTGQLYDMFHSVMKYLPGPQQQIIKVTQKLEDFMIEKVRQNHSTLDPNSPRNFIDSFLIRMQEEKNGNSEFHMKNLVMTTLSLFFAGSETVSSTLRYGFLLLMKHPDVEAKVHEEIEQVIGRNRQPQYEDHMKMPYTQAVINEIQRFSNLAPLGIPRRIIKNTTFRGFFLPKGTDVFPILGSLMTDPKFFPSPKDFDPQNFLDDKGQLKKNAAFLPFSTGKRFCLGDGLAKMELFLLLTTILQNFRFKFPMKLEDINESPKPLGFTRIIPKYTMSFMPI
Briefly: Testosterone 7α-hydroxylase in rat liver microsomes. The conditions noted are these: Rat liver microsomes. It is filed as biochemical.
Method: as §3

As to `CC1=C(/C=C/C(C)=C/C=C/C(C)=C/C(=O)O)C(C)(C)CCC1` [RA, All-trans-retinoic acid], the IC50 in data set [1] (Homo sapiens, T47D, 168 h, read-out: IC50 T47D cell proliferation) is 2 ± 0.5 nM. Further, the “loss of body weight” value in data set [2] (RA 5 mg kg^−1, mice) amounted to 5%. Moreover, in data set [2], the toxicity findings result was “hair loss, and impaired movement due to bone fractures”; the therapeutic window result is “does not show a real therapeutic window”. For the same compound, the “dose at which toxicity was observed” value in [2] (mice, oral, twice daily, toxicity related to hypervitaminosis A) was 5 mg/kg. Moreover, the “lowest active dose inhibiting TA3-Ha tumour growth” value in data set [2] (oral, twice daily) came to 2.5 mg/kg. The compound further had an MTD in data set [3] of 5 mg/kg.

For the compound `Clc1cccc(C(c2ccc3[nH]cnc3c2)n2ccnc2)c1.Clc1cccc(C(c2ccc3[nH]cnc3c2)n2ccnc2)c1.O=C(O)/C=C/C(=O)O.O=C(O)/C=C/C(=O)O.O=C(O)/C=C/C(=O)O` (racemic) [liarozole-fumarate, ±-5-[(3-chlorophenyl)(1H-imidazole-1-yl)methyl]-1H-benzimidazole (E)-2-butenedioate (2:3), reference compound], the IC50 in data set [4] was 110 nM; in data set [5], 500 nM; in [6] it was 1400 nM; in data set [7], 400 nM; in data set [8], 2900 nM; in data set [9], more than 10000 nM. The “decrease of T47D cell proliferation by itself” value in [1] (10 μM, compound alone) is “approximately 25%”. Besides, in [1] (liarozole-fumarate tested up to 10 μM, T47D cells), the “enhancement of the antiproliferative activity of RA” value was “unable to enhance”. Also, in [2], the toxicity findings result is “hair loss and bone fractures”. In data set [2], the therapeutic window result is on record as “no therapeutic window”. The “lowest active dose inhibiting TA3-Ha tumour growth” value in data set [2] (oral, twice daily) turned out to be 10 mg/kg.
